Our source for the TGI values is PubChem BioAssay (NCI).

What all share (assay): growth of human tumour cells (NCI), 48 h
The subject of assay [1] is DLD-1 colon.
For assay [2], the system named is DMS 273 small cell lung.
Assay [3] has as its system LXFL 529 NSCLC.
Assay [4] relates to M19-MEL melanoma.
The subject of assay [5] is RXF-631 renal.
The test system of assay [6] is SNB-78 CNS.
In assay [7] the test system is DMS 114 small cell lung.
The subject of assay [8] is XF 498 CNS.
Assay [9] has as its system HOP-18 NSCLC.

The structures appear in SMILES notation.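 48-hour exposure; five concentrations; linearly interpolated endpoints. TGI marks complete inhibition of growth.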 Some results are limits rather than exact numbers.

As for `CCCCCCCc1cc(OC(=O)c2c(C)cc(OC)cc2O)cc(O)c1C(=O)O`, the TGI is 34.7 µM in assay [1]; 87.9 µM in [2]; 34 µM in assay [3]; 50.7 µM in assay [4]; 63.9 µM in assay [5]; greater than 100 µM in [6].

In the case of `CCOc1ccc(NC(=O)C2=C(C)NC(C)=C(C(=O)Nc3ccc(OCC)cc3)C2c2ccc(O)c(OC)c2)cc1`, the TGI in assay [1], in assay [7], in [3], in assay [4], in assay [5] and in assay [6] was greater than 100 µM in each case. This molecule also came in with a TGI in assay [8] of 52 µM.

Regarding `Cn1c2c(c3ccccc31)CCN(CCN1CCN(c3ccccc3)CC1)C2=O`, the TGI in [1], in [7], in assay [2], in [9], in [3] and in assay [5] was greater than 100 µM each time. Also, the TGI in assay [8] worked out at 61.3 µM.

As to `CCN(CC)c1ccc(/C=C2/C[N+](C)(C)C/C(=C/c3ccc(N(CC)CC)cc3)C2=O)cc1`, the TGI in assay [1] was greater than 100 µM; in assay [7] it was 3.38 µM; in assay [9], 25 µM; in [3], 2.81 µM; in [4] it was 2.84 µM; in [5], greater than 100 µM. The results for the TGI in assay [6] and in assay [8] were 9.62 µM and 6.59 µM, respectively.

For `CC(=O)O[C@]12CCCCC1C1(O)C(O)CCCCC12` (some centres undefined), the TGI in assay [7], in [2], in assay [9], in assay [3], in [4] and in assay [6] was greater than 100 µM in each case.

For the molecule `CCCOC(=O)C1CCC(=O)N1C(=O)C(C)Cl` (centres undefined), the TGI in [1], in [7], in assay [2], in assay [9], in assay [3] and in assay [4] was greater than 100 µM each time. Moreover, the TGI in assay [6] and in [8] was greater than 100 µM each time.

On to `Cc1ccccc1C1OC(=O)c2ccccc21` (centres undefined), for which the TGI in [1], in [7], in assay [2], in assay [9], in assay [3] and in assay [4] was greater than 100 µM throughout. Moreover, the TGI in [5] and in assay [6] was greater than 100 µM in each case.

Regarding `CCOc1ccc(NC(=O)C(=O)NO)cc1`, the TGI in assay [1], in assay [7], in [2], in assay [9], in assay [3] and in [4] was greater than 100 µM in each case. In assay [6], this molecule had a TGI greater than 100 µM.

Turning to `N#CC(C(=O)/C(=N/NC(=O)c1ccccc1O)C(C#N)c1ccccc1)c1ccccc1` (centres undefined), the TGI in assay [1], in assay [7], in assay [2], in [9], in assay [3] and in assay [4] was greater than 100 µM throughout. The TGI in assay [5], in assay [6] and in [8] was greater than 100 µM throughout.

For `CN(C)CCC(O)(c1ccccc1)C(O)(CCN(C)C)c1ccccc1` (centres undefined), the TGI in assay [1], in [7], in assay [3], in [4], in assay [6] and in assay [8] was greater than 100 µM in each case.

Turning to `O=C1[C@@H]2C(c3ccc(Cl)cc3Cl)=NO[C@@H]2C(=O)N1c1ccc(Cc2ccc(N3C(=O)[C@H]4C(c5ccc(Cl)cc5Cl)=NO[C@H]4C3=O)cc2)cc1`, the TGI in [1] is greater than 100 µM; in assay [7], greater than 100 µM; in assay [2] it was greater than 100 µM; in assay [9], greater than 100 µM; in [3], 52.2 µM; in [4], greater than 100 µM. Also, the TGI in assay [6] and in [8] was greater than 100 µM in each case.

Turning to `CC1OC(n2ccc(=O)[nH]c2=O)C=C(OC(=O)c2ccccc2)C1=O` (centres undefined), the TGI in assay [1], in [2], in [9], in assay [4], in assay [6] and in assay [8] was greater than 100 µM throughout.

With `COc1ccc(/C(Cl)=C(/c2ccc(O)cc2)c2ccc(OCCN(C)C)cc2)cc1`, the TGI in assay [1] was 31 µM; in [7], 19.3 µM; in [2], 23.6 µM; in assay [9] it was 25 µM; in assay [3], 22.6 µM; in [4], 18.9 µM. Besides, the TGI in [5] stood at 36.7 µM; in assay [6], 29.3 µM; in assay [8] it was 10.3 µM.

With `CC(=O)N1c2ccccc2C2=CC3C4C(=O)N(c5ccccc5)C(=O)C4C21C1C(=O)N(c2ccccc2)C(=O)C31` (centres undefined), the TGI in assay [1] was greater than 100 µM; in [7] it was 44.1 µM; in assay [9], greater than 100 µM; in assay [3], greater than 100 µM; in assay [6], greater than 100 µM; in assay [8] it was 76.8 µM.

With `COc1ccc(NC(=O)CC(=O)N2N=C(N(CCC#N)c3ccccc3Cl)CC2c2ccccc2)cc1` (centres undefined), the TGI in assay [1], in assay [7], in [2], in [9], in assay [3] and in [4] was greater than 100 µM each time. For the same molecule, the TGI in assay [5], in [6] and in assay [8] was greater than 100 µM in each case.

As for `Nc1nc2sc3ccccc3c(=O)n2n1`, the TGI in assay [1], in assay [7], in assay [2], in assay [9], in [3] and in assay [6] was greater than 100 µM each time. The molecule further gave a TGI in assay [8] greater than 100 µM.

Take `Nc1nc(NCCO)c(N=O)c(=O)[nH]1`: the TGI in assay [1], in [7], in assay [2], in assay [9], in [3] and in [4] was greater than 100 µM throughout. The TGI in assay [6] and in assay [8] was greater than 100 µM throughout.

Turning to `C#CCNC(=O)NCCCC(NC(C)=O)C(=O)NCc1ccccc1` (centres undefined), the TGI in [1], in [7], in [9], in assay [3], in assay [4] and in [5] was greater than 100 µM each time. In assay [6], this molecule came in with a TGI greater than 100 µM.

Consider `NC(=O)C#CC#CC#CCO`, for which the TGI in assay [7] worked out at 3.6 µM; in assay [2] it was 4.1 µM; in [9], 3.28 µM; in assay [3], 2.35 µM; in assay [4] it was 3.26 µM; in assay [6] it was 7.03 µM.

Consider `COC(=O)C1CCC(Nc2ccc(C)cc2C)=N1` (centres undefined), for which the TGI in assay [1], in [2], in assay [9], in assay [3], in assay [4] and in assay [5] was greater than 100 µM in each case. Moreover, the TGI in [6] and in assay [8] was greater than 100 µM each time.

For `N#CC(/C(=N/NC(=O)C(=O)NN)C(=O)Nc1nc([N+](=O)[O-])cs1)c1ccc(Cl)cc1` (centres undefined), the TGI in assay [1], in [7], in assay [3], in [4], in assay [6] and in [8] was greater than 100 µM in each case.

As to `CCOCN1COCN=C1NC#N`, the TGI in [1], in assay [7], in [2], in [9], in assay [3] and in [5] was greater than 100 µM throughout. Besides, the TGI in [6] and in assay [8] was greater than 100 µM each time.

On to `COc1ccc2c(c1)C(=O)N1CCOC1C2C(=O)O` (centres undefined), for which the TGI was greater than 100 µM in assay [1]; greater than 100 µM in [7]; 11.2 µM in assay [2]; greater than 100 µM in assay [9]; greater than 100 µM in assay [3]; greater than 100 µM in assay [4]. The TGI in assay [5], in assay [6] and in [8] was greater than 100 µM throughout.

`Nc1ccc2nc(NCc3ccc(F)cc3)cnc2c1`: the TGI in [7], in [2], in assay [3], in [6] and in assay [8] was greater than 100 µM throughout.
